Data taken from patent US12077503B2, “Substituted cyclic amides and their use as herbicides” (FMC CORPORATION, priority 2015, dated 2024).

Key:
Format in all cases: in vivo
[1] = system: barnyardgrass (Echinochloa crus-galli); assay: Test G Post-Emergence Protocol; settings: Echinochloa crus-galli, post-emergence, 312 h; for pest or weed control at 15.625 g/ha: 15.625 g ai/ha, evaluated after 13 days (100=total damage to plant; 0=no damage to plant), read-out: Barnyardgrass damage rating; for pest or weed control at 62.5 g/ha: 62.5 g ai/ha, read-out: Barnyardgrass damage rating (100=total damage to plant; 0=no damage to plant); for pest or weed control at 62.5 g/ha / pest or weed control at 250 g/ha: evaluated after 13 days; for pest or weed control at 250 g/ha: 250 g ai/ha, read-out: damage to plant, Barnyardgrass (100=total damage to plant; 0=no damage to plant)
Outline: (§1)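 Post-emergence herbicidal damage, scored visually 0–100 at 13 days. Application at 15.625, 62.5 or 250 g/ha onto 8-day-old plants grown under glasshouse control.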

[2] = system: velvetleaf (Abutilon theophrasti); assay: Test G Post-Emergence Protocol; settings: Abutilon theophrasti, post-emergence, 312 h; for pest or weed control at 15.625 g/ha: 15.625 g ai/ha, evaluated after 13 days (100=total damage to plant; 0=no damage to plant), read-out: Velvetleaf damage rating; for pest or weed control at 62.5 g/ha: 62.5 g ai/ha, read-out: Velvetleaf damage rating (100=total damage to plant; 0=no damage to plant); for pest or weed control at 62.5 g/ha / pest or weed control at 250 g/ha: evaluated after 13 days; for pest or weed control at 250 g/ha: 250 g ai/ha, read-out: damage to plant, Velvetleaf (100=total damage to plant; 0=no damage to plant)
Outline: as §1

[3] = system: corn (Zea mays); assay: Test G Post-Emergence Protocol; settings: Zea mays, post-emergence, 312 h; for plant injury at 15.625 g/ha: 15.625 g ai/ha, evaluated after 13 days (100=total damage to plant; 0=no damage to plant), read-out: Corn damage rating; for plant injury at 62.5 g/ha: 62.5 g ai/ha, read-out: Corn damage rating (100=total damage to plant; 0=no damage to plant); for plant injury at 62.5 g/ha / plant injury at 250 g/ha: evaluated after 13 days; for plant injury at 250 g/ha: 250 g ai/ha, read-out: damage to plant, Corn (100=total damage to plant; 0=no damage to plant)
Outline: as §1

[4] = system: giant foxtail (Setaria faberi); assay: Test G Post-Emergence Protocol; settings: Setaria faberi, post-emergence, 312 h; for pest or weed control at 15.625 g/ha: 15.625 g ai/ha, evaluated after 13 days (100=total damage to plant; 0=no damage to plant), read-out: Foxtail, Giant damage rating; for pest or weed control at 62.5 g/ha: 62.5 g ai/ha, read-out: Foxtail, Giant damage rating (100=total damage to plant; 0=no damage to plant); for pest or weed control at 62.5 g/ha / pest or weed control at 250 g/ha: evaluated after 13 days; for pest or weed control at 250 g/ha: 250 g ai/ha, read-out: damage to plant, Foxtail, Giant (100=total damage to plant; 0=no damage to plant)
Outline: as §1

[5] = system: redroot pigweed (Amaranthus retroflexus); assay: Test G Post-Emergence Protocol; settings: Amaranthus retroflexus, post-emergence, 312 h; for pest or weed control at 15.625 g/ha: 15.625 g ai/ha, evaluated after 13 days (100=total damage to plant; 0=no damage to plant), read-out: Pigweed, Redroot damage rating; for pest or weed control at 62.5 g/ha: 62.5 g ai/ha, read-out: Pigweed, Redroot damage rating (100=total damage to plant; 0=no damage to plant); for pest or weed control at 62.5 g/ha / pest or weed control at 250 g/ha: evaluated after 13 days; for pest or weed control at 250 g/ha: 250 g ai/ha, read-out: damage to plant, Pigweed, Redroot (100=total damage to plant; 0=no damage to plant)
Outline: as §1

[6] = system: ivy-leaved morning glory (Ipomoea hederacea); assay: Test G Post-Emergence Protocol; settings: Ipomoea, post-emergence, 312 h; for pest or weed control at 15.625 g/ha: 15.625 g ai/ha, evaluated after 13 days (100=total damage to plant; 0=no damage to plant), read-out: Morningglory, Ivy-leaved damage rating; for pest or weed control at 62.5 g/ha: 62.5 g ai/ha, read-out: Morningglory, Ivy-leaved damage rating (100=total damage to plant; 0=no damage to plant); for pest or weed control at 62.5 g/ha / pest or weed control at 250 g/ha: evaluated after 13 days; for pest or weed control at 250 g/ha: 250 g ai/ha, read-out: damage to plant, Morningglory, Ivy-leaved (100=total damage to plant; 0=no damage to plant)
Outline: as §1

[7] = system: barnyardgrass (Echinochloa crus-galli); assay: Test G Pre-Emergence Protocol; settings: Echinochloa crus-galli, pre-emergence, 312 h, evaluated after 13 days; for pest or weed control at 15.625 g/ha: 15.625 g ai/ha, read-out: Barnyard grass damage rating (100=total damage to plant; 0=no damage to plant); for pest or weed control at 62.5 g/ha: 62.5 g ai/ha, 100=total damage to plant, 0=no damage to plant, read-out: plant damage rating, Barnyardgrass; for pest or weed control at 250 g/ha: 250 g ai/ha, read-out: Barnyardgrass damage rating (100=total damage to plant; 0=no damage to plant)
Outline: (§2)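 Scores are visual damage ratings from 0 (no damage) to 100 (total plant kill), taken 13 days after treatment. Compound was sprayed one day post-sowing at 15.625, 62.5 or 250 g/ha in 50:50 acetone/water with 0.5% Tween 20.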

[8] = system: velvetleaf (Abutilon theophrasti); assay: Test G Pre-Emergence Protocol; settings: Abutilon theophrasti, pre-emergence, 312 h, evaluated after 13 days; for pest or weed control at 15.625 g/ha: 15.625 g ai/ha; for pest or weed control at 15.625 g/ha / pest or weed control at 250 g/ha: read-out: Velvetleaf damage rating (100=total damage to plant; 0=no damage to plant); for pest or weed control at 62.5 g/ha: 62.5 g ai/ha, 100=total damage to plant, 0=no damage to plant, read-out: plant damage rating, Velvetleaf; for pest or weed control at 250 g/ha: 250 g ai/ha
Outline: as §2

[9] = system: corn (Zea mays); assay: Test G Pre-Emergence Protocol; settings: Zea mays, pre-emergence, 312 h, evaluated after 13 days; for plant injury at 15.625 g/ha: 15.625 g ai/ha; for plant injury at 15.625 g/ha / plant injury at 250 g/ha: read-out: Corn damage rating (100=total damage to plant; 0=no damage to plant); for plant injury at 62.5 g/ha: 62.5 g ai/ha, 100=total damage to plant, 0=no damage to plant, read-out: plant damage rating, Corn; for plant injury at 250 g/ha: 250 g ai/ha
Outline: as §2

[10] = system: giant foxtail (Setaria faberi); assay: Test G Pre-Emergence Protocol; settings: Setaria faberi, pre-emergence, 312 h, evaluated after 13 days; for pest or weed control at 250 g/ha: 250 g ai/ha
Outline: as §2

[11] = system: redroot pigweed (Amaranthus retroflexus); assay: Test G Pre-Emergence Protocol; settings: Amaranthus retroflexus, pre-emergence, 312 h, evaluated after 13 days; for pest or weed control at 15.625 g/ha: 15.625 g ai/ha; for pest or weed control at 15.625 g/ha / pest or weed control at 250 g/ha: read-out: Pigweed, Redroot damage rating (100=total damage to plant; 0=no damage to plant); for pest or weed control at 62.5 g/ha: 62.5 g ai/ha, 100=total damage to plant, 0=no damage to plant, read-out: plant damage rating, Pigweed, Redroot; for pest or weed control at 250 g/ha: 250 g ai/ha
Outline: as §2

[12] = system: ivy-leaved morning glory (Ipomoea hederacea); assay: Test G Pre-Emergence Protocol; settings: Ipomoea, pre-emergence, 312 h, evaluated after 13 days; for pest or weed control at 62.5 g/ha: 62.5 g ai/ha, 100=total damage to plant, 0=no damage to plant, read-out: plant damage rating, Morningglory, Ivy-leaved; for pest or weed control at 250 g/ha: 250 g ai/ha, read-out: Morningglory, Ivy-leaved damage rating (100=total damage to plant; 0=no damage to plant)
Outline: as §2

[13] = read-out: Foxtail, Giant damage rating (100=total damage to plant; 0=no damage to plant)

CN1C[C@@H](c2ccc(C(F)(F)F)cc2)[C@H](C(=O)Nc2n[nH]c(C(F)(F)F)n2)C1=O (racemic) [Compound 1540]
pest or weed control at 15.625 g/ha [1]: 0%
pest or weed control at 62.5 g/ha [1]: 0%
pest or weed control at 250 g/ha [1]: 0%
pest or weed control at 15.625 g/ha [2]: 0%
pest or weed control at 62.5 g/ha [2]: 0%
pest or weed control at 250 g/ha [2]: 0%
plant injury at 15.625 g/ha [3]: 0%
plant injury at 62.5 g/ha [3]: 10%
plant injury at 250 g/ha [3]: 10%
pest or weed control at 15.625 g/ha [4]: 0%
pest or weed control at 62.5 g/ha [4]: 0%
pest or weed control at 250 g/ha [4]: 0%
pest or weed control at 15.625 g/ha [5]: 0%
pest or weed control at 62.5 g/ha [5]: 0%
pest or weed control at 250 g/ha [5]: 20%
pest or weed control at 15.625 g/ha [6]: 0%
pest or weed control at 62.5 g/ha [6]: 10%
pest or weed control at 250 g/ha [6]: 10%
pest or weed control at 15.625 g/ha [7]: 0%
pest or weed control at 62.5 g/ha [7]: 0%
pest or weed control at 250 g/ha [7]: 0%
pest or weed control at 15.625 g/ha [8]: 0%
pest or weed control at 62.5 g/ha [8]: 0%
pest or weed control at 250 g/ha [8]: 0%
plant injury at 15.625 g/ha [9]: 0%
plant injury at 62.5 g/ha [9]: 0%
plant injury at 250 g/ha [9]: 0%
pest or weed control at 15.625 g/ha ([10]; 15.625 g ai/ha, read-out: Foxtail, Giant damage rating (100=total damage to plant; 0=no damage to plant)): 0%
pest or weed control at 62.5 g/ha ([10]; 62.5 g ai/ha, 100=total damage to plant, 0=no damage to plant, read-out: plant damage rating, Foxtail, Giant): 0%
pest or weed control at 250 g/ha [10, 13]: 0%
pest or weed control at 15.625 g/ha [11]: 0%
pest or weed control at 62.5 g/ha [11]: 0%
pest or weed control at 250 g/ha [11]: 40%
pest or weed control at 15.625 g/ha ([12]; 15.625 g ai/ha, read-out: Morning-glory, Ivy-leaved damage rating (100=total damage to plant; 0=no damage to plant)): 0%
pest or weed control at 62.5 g/ha [12]: 0%
pest or weed control at 250 g/ha [12]: 0%

CN1C[C@@H](c2ccc(C(F)(F)F)cc2)[C@H](C(=O)Nc2nnc[nH]2)C1=O (racemic) [Compound 1562]
pest or weed control at 15.625 g/ha [1]: 0%
pest or weed control at 62.5 g/ha [1]: 0%
pest or weed control at 250 g/ha [1]: 20%
pest or weed control at 15.625 g/ha [2]: 0%
pest or weed control at 62.5 g/ha [2]: 0%
pest or weed control at 250 g/ha [2]: 0%
plant injury at 15.625 g/ha [3]: 0%
plant injury at 62.5 g/ha [3]: 10%
plant injury at 250 g/ha [3]: 0%
pest or weed control at 15.625 g/ha [4]: 0%
pest or weed control at 62.5 g/ha [4]: 0%
pest or weed control at 250 g/ha [4]: 20%
pest or weed control at 15.625 g/ha [5]: 0%
pest or weed control at 62.5 g/ha [5]: 10%
pest or weed control at 250 g/ha [5]: 20%
pest or weed control at 15.625 g/ha [6]: 0%
pest or weed control at 62.5 g/ha [6]: 0%
pest or weed control at 250 g/ha [6]: 0%
pest or weed control at 15.625 g/ha [7]: 0%
pest or weed control at 62.5 g/ha [7]: 0%
pest or weed control at 250 g/ha [7]: 20%
pest or weed control at 15.625 g/ha [8]: 0%
pest or weed control at 62.5 g/ha [8]: 0%
pest or weed control at 250 g/ha [8]: 0%
plant injury at 15.625 g/ha [9]: 0%
plant injury at 62.5 g/ha [9]: 0%
plant injury at 250 g/ha [9]: 0%
pest or weed control at 250 g/ha [10, 13]: 30%
pest or weed control at 15.625 g/ha [11]: 0%
pest or weed control at 62.5 g/ha [11]: 0%
pest or weed control at 250 g/ha [11]: 0%
pest or weed control at 62.5 g/ha [12]: 0%
pest or weed control at 250 g/ha [12]: 0%
